Results taken from US20230293560A1, “METHOD FOR MODULATING THE BLADDER MICROBIOME TO IMPROVE BLADDER HEALTH” (Kimberly-Clark Worldwide, Inc., priority 2020, published 2023).
Several values for one entry are separate records, joined by “and”; a condition that tells them apart may be missing. Equal values may be shown once.

Experiments:
[1] = test system: ratio of L. crispatus/S. anginosus; assay: Therapeutic effect protocol (competition assay); type: cell-based, Lactobacillus crispatus; Streptococcus anginosus; conditions: Table 6; prebiotic 2%; Lc-3 vs Sa-2
Source text: As used herein, the term “therapeutic effect” refers to the ability of the compositions and formulations of the present disclosure to stimulate the growth of L. crispatus relative S. anginosus measured according to the therapeutic effect protocol described below. The therapeutic effect can be expressed as a ratio of L. crispatus to S. anginosus and is desirably greater than about 100, more preferably greater than about 500 and more desirably greater than about 1,000.
(§1) Further testing was conducted to put the prebiotic compounds in competition assay testing, as further described in the test methods section herein. In the competition assay testing, each competition involved testing a single prebiotic compound with the commensal bacteria species of L. crispatus, KC18-1173-1, Bladder (“Lc-3”—Table 2) against the pathogenic bacterial species of S. anginosus, KC18-1131-3B, Bladder (“Sa-2”—Table 2).
(§2) • 1. An in house bacterial agar was created based on MRS agar (Kaplan and Hutkins, 2000) where the glucose is substituted for the prebiotic to be tested (either dextran MW ˜6,000, alpha-cyclodextrin, glucomannan, or pectin), bromocresol purple was included as a pH indicator. • 2. Bacteria were enumerated on each agar and color changes were recorded. Method for Competition Assay (Modified from “In Vitro Evaluation of Nutrients that Selectively Confer a Competitive Advantage to Lactobacilli” Vongsa et al, Beneficial Microbes 2016) • 1. Create 2% w/v stock of prebiotic or positive control (glucose/dextrose) as described above. • 2. From a freezer stock subculture the bacteria twice into De Man, Rogosa and Sharpe (MRS) broth (BD Difco, Becton Dickinson, Franklin Lakes, NJ), 37° C., stationary, anaerobic, overnight. • 3. From the last subculture, plate onto an MRS agar plate for L. crispatus KC18-1173-1 or blood agar for S. anginosus KC18-1131-3B, grow 37° C., stationary, anaerobic, overnight. • 4. Create a bacterial suspension by using a sterile tipped swab to transfer colonies of bacteria into a PBS suspension blank to a 2 MacFarland for both species. • 5. Enumerate the starting culture. • 6. Add 9.8 mL of prebiotic media into a 15 mL conical tube. • 7. Add 100 μL of the diluted bacteria to the media, incubate at 37° C., anaerobic, 48 hours. • 8. Harvest 100 μL from the tube containing the prebiotic and plate onto MRS agar and tryptic soy agar (TSA). • 9. Enumerate the bacteria on the MRS agar (both the L. crispatus and the S. anginosus). Small colonies are counted as S. anginosus and large colonies are counted as L. crispatus. • 10. Enumerate the bacteria on the TSA plate. […] Growth of the bacteria in the negative control (CHL media without prebiotic) was subtracted from the growth in the presence of the prebiotic or formulation.
Colonies of L. crispatus and S. anginosus were tested against in the competition method assay test method as described above. The therapeutic effect was calculated by comparing the colony forming units recovered after the competition assay of both L. crispatus and S. anginosus and calculating the ratio of L. crispatus/S. anginosus. A larger number indicates an increase in L. crispatus and/or a decrease in S. anginosus and a smaller number indicates a decrease in L. crispatus and/or an increase in S. anginosus.

[2] = test system: commensal and pathogenic bacterial species; assay: Prebiotic screening, summary in words across species; type: cell-based; conditions: commensal (L. crispatus, L. gasseri, L. jensenii) and pathogenic (S. anginosus, E. faecalis) species
Experimental: Most of the prebiotic compounds were initially tested in a high throughput assay screening process, described further in the Test Methods section herein, but three prebiotics (as noted in Table 3) were tested using a plate assay screening process as described in the Test Methods section herein. The prebiotics were tested against the commensal bacterial species of Lactobacillus crispatus, Lactobacillus gasseri, and Lactobacillus jensenii and against the pathogenic bacterial species of Streptococcus anginosus and Enterococcus faecalis as shown in Table 2. The bacterial species were taken from different sources, listed as culture collection, bladder, and vagina.
The results of the assay plate screening of the prebiotic compounds of Table 1 against the bacterial species of Table 2 is documented in Table 3 with the results being described by the following legend: • ++ if growth and fermentation was equal to or greater than the positive control • + if growth and fermentation was less than the positive control • […] if weak or no growth or fermentation • NT if not tested Some codes were not tested based on the use or non-use by the bacteria, as a way to efficiently move through the assay plate screening to the competition assay, described below.
• 1. Create a 2% w/v stock of prebiotic or positive control (glucose/dextrose) to be tested in API 50 CHL media (Biomerieux, Marcy-I'Étoile, France). API 50 CHL media contains minimal amounts of carbon for growth, and a bromocresol purple as a pH indicator of fermentation. Filter sterilize media with a […]. Store at 4-6° C. until use. • 2. Add 180 μL of media containing the prebiotic to a sterile, flat bottom 96-well microtiter plate (Corning, Corning, NY). • 3. From a freezer stock subculture the bacteria twice into De Man, Rogosa and Sharpe (MRS) broth (BD Difco, Becton Dickinson, Franklin Lakes, NJ), 37° C., stationary, anaerobic, overnight. • 4. From the last subculture, plate onto an MRS agar plate (Teknova, Hollister, CA) and grow 37° C., stationary, anaerobic, overnight. • 5. Create a bacterial suspension by using a sterile tipped swab to transfer colonies of bacteria into a PBS suspension blank to a 0.5 MacFarland (S. anginosus or E. faecalis) or a 1 MacFarland (Lactobacillus species) from the MRS agar plate. • 6. Enumerate the starting culture. • 7. Inoculate the media alone and media containing the prebiotic or positive control with 20 μL of the bacterial suspension. • 8. Place the plate into a spectrophotometer (Molecular Devices, San Jose, CA) and read the plate every 20 minutes for 24-48 hours. Read wavelengths (OD 430, OD 590, and OD 660). A color change to yellow caused by a drop in pH will be read by an increase in the OD430 value and a decrease in the OD590 value and is indicative of bacterial fermentation. An increase in OD660 values is indicative of an increase in turbidity and bacterial growth.
• 1. An in house bacterial agar was created based on MRS agar (Kaplan and Hutkins, 2000) where the glucose is substituted for the prebiotic to be tested (either dextran MW ˜6,000, alpha-cyclodextrin, glucomannan, or pectin), bromocresol purple was included as a pH indicator. • 2. Bacteria were enumerated on each agar and color changes were recorded. Method for Competition Assay (Modified from “In Vitro Evaluation of Nutrients that Selectively Confer a Competitive Advantage to Lactobacilli” Vongsa et al, Beneficial Microbes 2016) • 1. Create 2% w/v stock of prebiotic or positive control (glucose/dextrose) as described above. • 2. From a freezer stock subculture the bacteria twice into De Man, Rogosa and Sharpe (MRS) broth (BD Difco, Becton Dickinson, Franklin Lakes, NJ), 37° C., stationary, anaerobic, overnight. • 3. From the last subculture, plate onto an MRS agar plate for L. crispatus KC18-1173-1 or blood agar for S. anginosus KC18-1131-3B, grow 37° C., stationary, anaerobic, overnight. • 4. […]

[3] = test system: S. anginosus, KC18-1131-3B, Bladder (Sa-2); type: cell-based; conditions: Table 6, prebiotic 2%, one line per replicate; for Sa-2 MRS Δ / Sa-2 TSA Δ: change vs start, background growth in CHL media subtracted; for Sa-2 MRS Δ: MRS agar; for Sa-2 MRS end / Sa-2 TSA end: competition Sa-2 vs Lc-3, 48 hours; for Sa-2 MRS end: anaerobic, enumerated on MRS agar; for Sa-2 TSA end: enumerated on TSA
Experimental: as §1, §2

[4] = test system: L. crispatus, KC18-1173-1, Bladder (Lc-3); assay: Competition assay, L. crispatus recovered; type: cell-based, Lactobacillus crispatus; conditions: Table 6, prebiotic 2%, one line per replicate; for Lc-3 MRS Δ: change vs start, background growth in CHL media subtracted, MRS agar; for Lc-3 MRS end: competition Sa-2 vs Lc-3, 48 hours, enumerated on MRS agar
Experimental: as §1, §2

## O=CC[C@H](O)[C@H](O)CO [2-Deoxy-D-Ribose]
[1]
  Therapeutic Effect (ratio of L. crispatus/S. anginosus): 6.03E−07 (2×) and 1.91E−03 (2×)
[2]
  overall outcome of the screening of Table 3, in words: not able to provide growth for most, if not all, commensal and pathogenic bacterial species
[3]
  Sa-2 MRS Δ: −2.41 Log CFU/mL and −1.26 Log CFU/mL
  Sa-2 TSA Δ: −0.63 Log CFU/mL and −0.23 Log CFU/mL
  Sa-2 MRS end: 4.29 Log CFU/mL and 5.59 Log CFU/mL
  Sa-2 TSA end: 6.22 Log CFU/mL and 6.90 Log CFU/mL
[4]
  Lc-3 MRS Δ: −5.22 Log CFU/mL and −1.90 Log CFU/mL
  Lc-3 MRS end: 0 Log CFU/mL and 4.18 Log CFU/mL

## O=C[C@@H](O)[C@H](O)[C@H](O)CO [D-Arabinose]
[1]
  Therapeutic Effect (ratio of L. crispatus/S. anginosus): 4.07E−02 (2×) and 1.10E−01 (2×)
[2]
  overall outcome of the screening of Table 3, in words: not able to provide growth for most, if not all, commensal and pathogenic bacterial species
[3]
  Sa-2 MRS Δ: −0.27 Log CFU/mL and −0.47 Log CFU/mL
  Sa-2 TSA Δ: −0.46 Log CFU/mL and −0.32 Log CFU/mL
  Sa-2 MRS end: 6.43 Log CFU/mL and 6.38 Log CFU/mL
  Sa-2 TSA end: 6.39 Log CFU/mL and 6.81 Log CFU/mL
[4]
  Lc-3 MRS Δ: −0.13 Log CFU/mL and −0.23 Log CFU/mL
  Lc-3 MRS end: 5.00 Log CFU/mL and 5.85 Log CFU/mL

## OC[C@@H](O)[C@@H](O[C@H]1O[C@H](CO)[C@@H](O)[C@H](O)[C@H]1O)[C@H](O)[C@@H](O)CO [Maltitol]
[1]
  Therapeutic Effect (ratio of L. crispatus/S. anginosus): 1.66E−02 (2×) and 2.51E−02 (2×)
[2]
  overall outcome of the screening of Table 3, in words: not able to provide growth for most, if not all, commensal and pathogenic bacterial species
[3]
  Sa-2 MRS Δ: −0.12 Log CFU/mL and −0.37 Log CFU/mL
  Sa-2 TSA Δ: 0.41 Log CFU/mL and 0.47 Log CFU/mL
  Sa-2 MRS end: 6.58 Log CFU/mL and 6.48 Log CFU/mL
  Sa-2 TSA end: 7.26 Log CFU/mL and 7.6 Log CFU/mL
[4]
  Lc-3 MRS Δ: 0.35 Log CFU/mL and −0.08 Log CFU/mL
  Lc-3 MRS end: 5.48 Log CFU/mL and 6.00 Log CFU/mL

## O=C(CO)[C@@H](O)[C@H](O)[C@H](O)CO[C@H]1O[C@H](CO)[C@@H](O)[C@H](O)[C@H]1O [Palatinose Hydrate, 6-O-α-D-Glucopyranosyl-D-fructose]
[1]
  Therapeutic Effect (ratio of L. crispatus/S. anginosus): 1.74E+03 (2×) and 2.57E+03 (2×) and 3.29E+03 (2×) and 6.92E+03 (2×)
[3]
  Sa-2 MRS Δ: −1.69 Log CFU/mL and −1.90 Log CFU/mL and −1.82 Log CFU/mL
  Sa-2 TSA Δ: −2.39 Log CFU/mL and −2.07 Log CFU/mL and −0.79 Log CFU/mL and −2.32 Log CFU/mL
  Sa-2 MRS end: 5.16 Log CFU/mL and 4.47 Log CFU/mL and 4.88 Log CFU/mL
  Sa-2 TSA end: 4.74 Log CFU/mL and 4.56 Log CFU/mL and 5.73 Log CFU/mL and 4.53 Log CFU/mL
[4]
  Lc-3 MRS Δ: 2.93 Log CFU/mL and 2.26 Log CFU/mL and 3.24 Log CFU/mL and 1.90 Log CFU/mL
  Lc-3 MRS end: 7.97 Log CFU/mL and 8.00 Log CFU/mL and 8.37 Log CFU/mL and 7.98 Log CFU/mL

## O=C(CO)[C@@H](O)[C@H](O)[C@H](O)CO[C@H]1O[C@H](CO)[C@@H](O)[C@H](O)[C@H]1O [Palatinose PST-N]
[1]
  Therapeutic Effect (ratio of L. crispatus/S. anginosus): 8.71E+03 (2×) and 5.80E+03 (2×)
[3]
  Sa-2 MRS Δ: −2.08 Log CFU/mL and −1.53 Log CFU/mL
  Sa-2 TSA Δ: −2.11 Log CFU/mL and −1.03 Log CFU/mL
  Sa-2 MRS end: 4.29 Log CFU/mL and 5.16 Log CFU/mL
  Sa-2 TSA end: 4.52 Log CFU/mL and 5.49 Log CFU/mL
[4]
  Lc-3 MRS Δ: 3.42 Log CFU/mL and 2.48 Log CFU/mL
  Lc-3 MRS end: 8.46 Log CFU/mL and 8.22 Log CFU/mL

## O=C(CO)[C@@H](O)[C@H](O)[C@H](O)CO[C@H]1O[C@H](CO)[C@@H](O)[C@H](O)[C@H]1O [Palatinose PST-PA]
[1]
  Therapeutic Effect (ratio of L. crispatus/S. anginosus): 1.66E+02 (2×) and 1.50E+02 (2×)
[3]
  Sa-2 MRS Δ: −1.63 Log CFU/mL
  Sa-2 TSA Δ: −0.56 Log CFU/mL and −1.23 Log CFU/mL
  Sa-2 MRS end: 5.06 Log CFU/mL
  Sa-2 TSA end: 6.07 Log CFU/mL and 5.29 Log CFU/mL
[4]
  Lc-3 MRS Δ: 3.25 Log CFU/mL and 1.94 Log CFU/mL
  Lc-3 MRS end: 8.29 Log CFU/mL and 7.68 Log CFU/mL

## O=C(CO)[C@@H](O)[C@H](O)[C@H](O)CO[C@H]1O[C@H](CO)[C@@H](O)[C@H](O)[C@H]1O [Palatinose PST-PF]
[1]
  Therapeutic Effect (ratio of L. crispatus/S. anginosus): 1.29E+04 (2×) and 1.41E+04 (2×)
[3]
  Sa-2 MRS Δ: −1.28 Log CFU/mL
  Sa-2 TSA Δ: −2.68 Log CFU/mL and −0.94 Log CFU/mL
  Sa-2 MRS end: 5.41 Log CFU/mL
  Sa-2 TSA end: 3.95 Log CFU/mL and 5.58 Log CFU/mL
[4]
  Lc-3 MRS Δ: 3.02 Log CFU/mL and 2.16 Log CFU/mL
  Lc-3 MRS end: 8.06 Log CFU/mL and 7.90 Log CFU/mL
